Read-outs that look alike come from different tables or passages of the source.
Key:
[1] = target: T1, full-length human PIKFYVE (GST-PIKFYVE) (Homo sapiens, UniProt Q9Y2I7, L932S/Q1183K/Q995L/S1033A/S696N/T998S); assay: PIKfyve biochemical assay (ADP-Glo Kinase assay, Carna Biosciences)
T1 construct: A full-length human PIKFYVE [1-2098 (end) amino acids; purchased Carna Biosciences; host or cells: baculovirus expression system
Protocol: PIKfyve Biochemical Assay. The biochemical PIKFyve inhibition assays were run by Carna Biosciences according to proprietary methodology based on the Promega ADP-Glo™ Kinase assay. […] GST-PIKFYVE was purified by using glutathione sepharose chromatography and used in an ADP-Glo™ Kinase assay (Promega). Reactions were set up by adding the test compound solution, substrate solution, ATP solution and kinase solution, each at 4×final concentrations. Reactions were prepared with assay buffer (50 mM MOPS, 1 mM DTT, pH7.2), mixed, and incubated in black 384 well polystyrene plates for 1 hour at room temperature. ADP-Glo™ reagent was then added for 40 minutes, followed by kinase detection reagent for an additional 40 minutes. The kinase activity was evaluated by detecting relative light units on a luminescence plate reader. Samples were run in duplicate from 10 μM to 3 nM. […] IC50 values were calculated from concentration vs % inhibition curves by fitting to a four-parameter logistic curve.
The biochemical PIKFyve inhibition assays were run by Carna Biosciences according to proprietary methodology based on the Promega ADP-Glo™ Kinase assay. […] GST-PIKFYVE was purified by using glutathione sepharose chromatography and used in an ADP-Glo™ Kinase assay (Promega).
Reactions were set up by adding the test compound solution, substrate solution, ATP solution and kinase solution, each at 4×final concentrations. Reactions were prepared with assay buffer (50 mM MOPS, 1 mM DTT, pH7.2), mixed, and incubated in black 384 well polystyrene plates for 1 hour at room temperature. ADP-Glo™ reagent was then added for 40 minutes, followed by kinase detection reagent for an additional 40 minutes. The kinase activity was evaluated by detecting relative light units on a luminescence plate reader. Samples were run in duplicate from 10 uM to 3 nM. […] IC50 values were calculated from concentration vs % inhibition curves by fitting to a four-parameter logistic curve.

[2] = test system: PIKFYVE TDP-43 yeast strain; assay: Propidium iodide viability assay, PIKFYVE TDP-43 yeast strain; type: cell-based; settings: Saccharomyces cerevisiae; reduction in PI-positive cells, 24 hours, values plotted in FIG. 7
Text: Generation of TDP-43 yeast model expressing human PIKfyve. Human PIKFYVE (“entry clone”) was cloned into pAG416GPDccdB (“destination vector”) according to standard Gateway cloning protocols (Invitrogen, Life Technologies). The resulting pAG416GPD-PIKFYVE plasmids were amplified in E. coli and plasmid identity confirmed by restriction digest and Sanger sequencing. Lithium acetate/polyethylene glycol-based transformation was used to introduce the above PIKFYVE plasmid into a BY4741 yeast strain auxotrophic for the ura3 gene and deleted for two transcription factors that regulate the xenobiotic efflux pumps, a major efflux pump, and FAB1, the yeast ortholog of PIKFYVE (MATa, snq2::KILeu2; pdr3::KIura3; pdr1::NATMX; fab1::G418^R, his3; leu2; ura3; met15; LYS2+) (FIG. 2).
Transformed yeast were plated on solid agar plates with complete synthetic media lacking uracil (CSM-ura) and containing 2% glucose. Individual colonies harboring the control or PIKFYVE TDP-43 plasmids were recovered. A plasmid containing wild-type TDP-43 under the transcriptional control of the GAL1 promoter and containing the hygromycin-resistance gene as a selectable marker was transformed into the fab1::G418^R pAG416GPD-PIKFYVE yeast strain (FIG. 1). Transformed yeast were plated on CSM-ura containing 2% glucose and […] after overnight recovery in media lacking antibiotic. Multiple independent isolates were further evaluated for cytotoxicity and TDP-43 expression levels.
Viability Assay. A control yeast strain with the wild-type yeast FAB1 gene and TDP-43 (“FAB1 TDP-43”, carries empty pAG416 plasmid), and the “PIKFYVE TDP-43” yeast strain, were assessed for toxicity using a propidium iodide viability assay. Both yeast strains were transferred from solid CSM-ura/2% glucose agar plates into 3 mL of liquid CSM-ura/2% glucose media for 6-8 hours at 30° C. with aeration. Yeast cultures were then diluted to an optical density at 600 nm wavelength (OD600) of 0.005 in 3 mL of CSM-ura/2% raffinose and grown overnight at 30° C. with aeration to an OD600 of 0.3-0.8. Log-phase overnight cultures were diluted to OD600 of 0.005 in CSM-ura containing either 2% raffinose or galactose and 150 μL dispensed into each well of a flat bottom 96-well plates. Compounds formulated in 100% dimethyl sulfoxide (DMSO) were serially diluted in DMSO and 1.5 μL diluted compound transferred to the 96-well plates using a multichannel pipet. Wells containing DMSO alone were also evaluated as controls for compound effects. Tested concentrations ranged from 15 μM to […]. Cultures were immediately mixed to ensure compound distribution and covered plates incubated at 30° C. for 24 hours in a stationary, humified incubator.
Upon the completion of incubation, cultures were assayed for viability using propidium iodide (PI) to stain for dead/dying cells. A working solution of PI was made where, for each plate, 1 μL of 10 mM PI was added to 10 mL of CSM-ura (raffinose or galactose). The final PI solution (50 μL/well) was dispensed into each well of a new round bottom 96-well plate. The overnight 96-well assay plate was then mixed with a multichannel pipet and 50 μL transferred to the PI-containing plate. This plate was then incubated for 30 minutes at 30° C. in the dark. A benchtop flow cytometer (Miltenyi MACSquant) was then used to assess red fluorescence ([…]), forward scatter, and side scatter (with following settings: gentle mix, high flow rate, fast measurement, 10,000 events). Intensity histograms were then gated for “PI-positive” or “PI-negative” using the raffinose and galactose cultures treated with DMSO as controls. The DMSO controls for raffinose or galactose-containing cultures were used to determine the window of increased cell death and this difference set to 100. All compounds were similarly gated and then compared to this maximal window to establish the percent reduction in PI-positive cells.

[3] = target: T2, PIKfyve (PIKFYVE-NanoLuc fusion in HEK293 cells) (Homo sapiens, UniProt Q9Y2I7); assay: NanoBRET TE Intracellular Kinase Assay, K-8 (Promega) cell-based assay; settings: 2 hours, read-out: hPIKfyve BRET IC50
T2 construct: containing a full-length PIKfyve according to manufacturer's specifications; host or cells: HEK293
T2 sequence (Q9Y2I7 whole entry, the tested form may be a part): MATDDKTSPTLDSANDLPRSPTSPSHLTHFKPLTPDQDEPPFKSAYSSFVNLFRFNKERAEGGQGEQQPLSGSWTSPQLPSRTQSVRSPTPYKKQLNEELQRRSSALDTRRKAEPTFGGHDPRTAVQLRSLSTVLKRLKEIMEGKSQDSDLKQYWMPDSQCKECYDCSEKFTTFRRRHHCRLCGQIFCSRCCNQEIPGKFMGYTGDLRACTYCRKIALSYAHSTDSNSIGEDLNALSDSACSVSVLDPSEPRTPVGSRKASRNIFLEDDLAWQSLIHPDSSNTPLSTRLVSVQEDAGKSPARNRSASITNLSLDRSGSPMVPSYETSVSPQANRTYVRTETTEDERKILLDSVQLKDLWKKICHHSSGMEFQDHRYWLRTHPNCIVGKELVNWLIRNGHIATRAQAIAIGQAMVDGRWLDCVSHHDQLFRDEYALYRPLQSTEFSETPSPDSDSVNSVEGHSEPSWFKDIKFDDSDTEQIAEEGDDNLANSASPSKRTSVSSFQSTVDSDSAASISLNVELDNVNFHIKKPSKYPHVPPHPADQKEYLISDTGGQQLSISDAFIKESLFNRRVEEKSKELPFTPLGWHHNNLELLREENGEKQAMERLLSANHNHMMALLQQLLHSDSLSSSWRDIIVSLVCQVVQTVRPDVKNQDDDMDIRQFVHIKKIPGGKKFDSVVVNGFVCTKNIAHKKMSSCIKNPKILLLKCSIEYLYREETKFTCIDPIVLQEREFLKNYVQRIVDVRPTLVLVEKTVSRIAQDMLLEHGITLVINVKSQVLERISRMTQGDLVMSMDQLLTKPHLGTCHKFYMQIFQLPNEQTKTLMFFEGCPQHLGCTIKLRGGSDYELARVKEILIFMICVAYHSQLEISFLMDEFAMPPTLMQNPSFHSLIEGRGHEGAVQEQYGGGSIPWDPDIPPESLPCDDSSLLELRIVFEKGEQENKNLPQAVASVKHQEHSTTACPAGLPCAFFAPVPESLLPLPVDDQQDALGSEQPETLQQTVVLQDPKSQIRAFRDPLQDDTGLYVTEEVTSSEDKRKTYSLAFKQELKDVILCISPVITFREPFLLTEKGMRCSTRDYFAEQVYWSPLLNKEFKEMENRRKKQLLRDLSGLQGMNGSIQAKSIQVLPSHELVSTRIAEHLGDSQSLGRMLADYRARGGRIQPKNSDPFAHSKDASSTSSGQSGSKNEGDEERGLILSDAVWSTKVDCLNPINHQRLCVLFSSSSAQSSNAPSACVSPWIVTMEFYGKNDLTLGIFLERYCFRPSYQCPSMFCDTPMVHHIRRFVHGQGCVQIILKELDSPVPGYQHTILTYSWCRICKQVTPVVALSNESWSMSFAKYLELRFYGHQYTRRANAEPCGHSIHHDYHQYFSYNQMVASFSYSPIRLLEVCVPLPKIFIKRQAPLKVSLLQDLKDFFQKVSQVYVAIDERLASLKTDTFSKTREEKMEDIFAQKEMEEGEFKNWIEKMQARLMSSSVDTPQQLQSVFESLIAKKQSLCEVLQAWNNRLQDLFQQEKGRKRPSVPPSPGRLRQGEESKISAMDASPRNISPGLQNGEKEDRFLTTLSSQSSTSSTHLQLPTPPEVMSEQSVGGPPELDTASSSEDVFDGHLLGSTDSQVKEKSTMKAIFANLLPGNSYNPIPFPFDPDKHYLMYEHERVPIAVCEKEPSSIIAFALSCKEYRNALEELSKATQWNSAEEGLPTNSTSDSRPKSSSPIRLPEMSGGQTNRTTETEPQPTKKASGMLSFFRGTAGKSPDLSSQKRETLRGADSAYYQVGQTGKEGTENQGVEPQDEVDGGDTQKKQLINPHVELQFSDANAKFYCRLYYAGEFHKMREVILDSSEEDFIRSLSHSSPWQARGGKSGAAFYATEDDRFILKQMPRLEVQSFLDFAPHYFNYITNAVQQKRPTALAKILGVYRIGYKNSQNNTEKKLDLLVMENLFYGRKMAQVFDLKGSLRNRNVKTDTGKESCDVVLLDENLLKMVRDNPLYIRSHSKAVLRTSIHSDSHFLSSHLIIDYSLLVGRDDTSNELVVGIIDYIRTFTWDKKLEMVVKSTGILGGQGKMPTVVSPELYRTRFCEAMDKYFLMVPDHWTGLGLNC
Protocol: NanoBRET™ TE Intracellular Kinase Assay, K-8 (Promega) Cell-Based Assay. Intracellular inhibition of PIKfyve was assayed using Promega's NanoBRET™ TE Intracellular Kinase Assay, K-8 according to manufacturer's instructions. A dilution series of test compounds was added for 2 hours to HEK293 cells transfected for a minimum of 20 hours with PIKFYVE-NanoLuc® Fusion Vector (Promega) containing a full-length PIKfyve according to manufacturer's specifications in a 96-well plate. Kinase activity was detected by addition of a NanoBRET™ tracer reagent, which was a proprietary PIKfyve inhibitor appended to a fluorescent probe (BRET, bioluminescence resonance energy transfer). Test compounds were tested at concentrations of 10, 3, 1, 0.3, 0.1, 0.03, 0.01, 0.003 μM. BRET signals were measured by a GloMax® Discover Multimode Microplate Reader (Promega) using 0.3 sec/well integration time, 450BP donor filter and 600LP acceptor filters. Active test compounds that bound PIKfyve and displaced the tracer reduced BRET signal. IC50 values were then calculated by fitting the data to the normalized BRET ratio.

[4] = values plotted in FIG. 7, read-out: PIKFYVE Biochemistry (IC50)
[5] = ADP-Glo, full-length human PIKFYVE, read-out: hPIKfyve IC50
[6] = ADP-Glo with full-length PIKfyve, read-out: PIKfyve IC50

T1 sequence (Q9Y2I7 whole entry S696N/L932S/Q995L/T998S/S1033A/Q1183K): as the sequence (Q9Y2I7 whole entry, the tested form may be a part) above, with S696N, L932S, Q995L, T998S, S1033A, Q1183K counted along it

Row | Compound | IC50 [1, 4] | IC50 [2] | other results
1 | Oc1cc(C2CCOCC2)nn1-c1cc(N2CCOCC2)n2nc(-c3ccncc3)cc2n1 | 0.253 µM | 9.11 µM | –
2 | c1cncc(-c2nc(N3CCOCC3)nc3c2CCN3c2ccc3c(c2)OCCO3)c1 [Compound 64, 4-(7-(2,3-dihydrobenzo[b][1,4]dioxin-6-yl)-4-(pyridin-3-yl)-6,7-dihydro-5H-pyrrolo[2,3-d]pyrimidin-2-yl)morpholine] | – | – | IC50 [1, 5]: 0.01 to 0.1 µM
3 | Cn1c(-c2ccncc2)nc2c(N3CCOCC3)ncnc21 [drawing 265] | 0.64 µM | > 15 µM | –
4 | O=c1c(CCOc2cccnc2)cc2ncncc2n1-c1ccccc1 | – | > 15 µM | –
5 | c1ccc(-c2ccnc(-c3cc(N4CCOCC4)nc(OCc4ccncc4)n3)n2)cc1 | 0.032 µM | 1.45 µM | –
6 | c1ccc(Cc2nc(N3CCOCC3)nc3c2CCN3c2cccnc2)nc1 [Compound 38] | – | – | IC50 [1, 5]: 0.1 to 1 µM
7 | N#Cc1ccc(N2CCc3c(OCc4cccnc4)nc(N4CCOCC4)nc32)cc1 [Compound 21, 4-(2-morpholino-4-(pyridin-3-ylmethoxy)-5H-pyrrolo[2,3-d]pyrimidin-7(6H)-yl)benzonitrile] | – | – | IC50 [3]: 0.1 to 1 µM
8 | CN1CCCC(COc2nc(N3CCOCC3)nc3c2CCN3c2ccccc2)C1 (stereo not shown) [Compound 7] | – | – | IC50 [1, 5]: 1 to 10 µM
9 | c1ccc(-c2ccnn2-c2cc(N3CCOCC3)n3nc(-c4ccncc4)nc3n2)cc1 | 0.767 µM | > 15 µM | –
10 | c1ccc(C2CN(c3cc(N4CCOCC4)n4nc(-c5ccncc5)cc4n3)CCN2)cc1 (stereo not shown) | 2.66 µM | > 15 µM | –
11 | c1cc(-c2cc3nc(C4CNC4)cc(N4CCOCC4)n3n2)ccn1 | 8.02 µM | > 15 µM | –
12 | c1cc(-c2nc3nc(N4CCOCC4)cc(N4CCOCC4)n3n2)ccn1 | 9.2 µM | > 15 µM | –
13 | c1ccc(N2CCc3c(OCc4ccncc4)nc(N4CCOCC4)nc32)cc1 [Compound 4] | – | – | IC50 [1, 5]: 0.01 to 0.1 µM
14 | c1ccc(-c2nc(-c3cc(N4CCOCC4)nc(OCc4ccncc4)n3)no2)cc1 | – | > 15 µM | –
15 | Cc1cccc(/C=N/Nc2cc(N3CCOCC3)nc(OCCc3ccc(CN)cc3)n2)c1 | 0.007 µM | 1.12 µM | –
16 | Oc1cc(-c2ccccc2)nn1-c1cc(N2CCOCC2)n2nc(-c3ccncc3)nc2n1 | 0.018 µM | 0.693 µM | –
17 | c1ccc(-c2cccc(-c3cc(N4CCOCC4)n4nc(-c5ccncc5)cc4n3)n2)cc1 | 0.014 µM | 0.23 µM | –
18 | c1ccc(N2CCc3c(Cc4ccccn4)nc(N4CCOCC4)nc32)cc1 [Compound 37, 4-(7-phenyl-4-(pyridin-2-ylmethyl)-6,7-dihydro-5H-pyrrolo[2,3-d]pyrimidin-2-yl)morpholine] | – | – | IC50 [1, 5]: 0.01 to 0.1 µM

Row | Compound | IC50 [1, 4] | IC50 [2] | other results
19 | COc1nc(N2CCOCC2)nc2c1CCN2c1ccccc1 [drawing 274] | 0.085 µM | 4.27 µM | –
20 | Cc1cccc(/C=N/Nc2cc(N3CC4CC3CO4)n3nc(-c4ccncc4)cc3n2)c1 (stereo not shown) | – | – | IC50 [1, 6]: 0.012 µM
21 | CC(C)(C)OC(=O)N1CCC(OCc2nc(N3CCOCC3)nc3c2CCN3c2cccnc2)C1 (stereo not shown) [Compound 15, tert-butyl 3-((2-morpholino-7-(pyridin-3-yl)-6,7-dihydro-5H-pyrrolo[2,3-d]pyrimidin-4-yl)methoxy)pyrrolidine-1-carboxylate] | – | – | IC50 [1, 5]: 1 to 10 µM
22 | O=c1ccn(Cc2nc(N3CCOCC3)cc(-n3nccc3-c3ccccc3)n2)cc1 | – | > 15 µM | –
23 | c1ccc(Cc2ncccc2-c2cc(N3CCOCC3)n3nc(-c4ccncc4)cc3n2)cc1 | 1.09 µM | > 15 µM | –
24 | CN(C)c1cc(N2CCOCC2)n2nc(-c3ccncc3)cc2n1 | – | – | IC50 [1, 6]: 2.01 µM
25 | c1ccc(N2CCc3c(OCc4cccnc4)nc(N4CCOCC4)nc32)cc1 [drawing 275] | 0.042 µM | 2.69 µM | –
26 | Fc1cccc(-c2ccnn2-c2nc(N3CCOCC3)c3ncccc3n2)c1 | – | 5.75 µM | –
27 | c1ccc(N2CCc3c(NC4COC4)nc(N4CCOCC4)nc32)cc1 [Compound 48, 2-morpholino-N-(oxetan-3-yl)-7-phenyl-6,7-dihydro-5H-pyrrolo[2,3-d]pyrimidin-4-amine] | – | – | IC50 [1, 5]: 1 to 10 µM
28 | Cc1cccc(/C=N/Nc2nc(N3CCOCC3)c3nc(-c4ccncc4)n(C)c3n2)c1 [drawing 266] | 0.005 µM | 4.72 µM | –
29 | Cc1cccc(/C=N/Nc2nc(N3CCOCC3)c3nc(-c4ccncc4)n(C)c3n2)c1 [drawing 252] | – | – | IC50 [1, 6]: 0.0049 µM
30 | Cn1c(-c2ccncc2)nc2c(N3CCOCC3)ncnc21 [drawing 253] | – | – | IC50 [1, 6]: 0.64 µM
31 | O=c1ccc(-c2ccccc2)nn1-c1cc(N2CCOCC2)n2nc(-c3ccncc3)cc2n1 | 0.295 µM | > 15 µM | –
32 | c1cc(COc2nc(N3CCOCC3)cc(-n3cc4c(n3)COCC4)n2)ccn1 | 1.34 µM | > 15 µM | –
33 | c1ccc(N2CCc3c(OCC4CCCO4)nc(N4CCOCC4)nc32)cc1 (stereo not shown) [Compound 8] | – | – | IC50 [1, 5]: 0.01 to 0.1 µM
34 | c1cncc(N2CCc3c(COC4CCNC4)nc(N4CCOCC4)nc32)c1 (stereo not shown) [Compound 13, 4-(7-(pyridin-3-yl)-4-((pyrrolidin-3-yloxy)methyl)-5,6-dihydro-5H-pyrrolo[2,3-d]pyrimidin-2-yl)morpholine] | – | – | IC50 [1, 5]: 0.1 to 1 µM
35 | Cc1cccc(/C=N/Nc2nc(N3CCOCC3)c3ncccc3n2)c1 | 0.018 µM | 8.21 µM | –

— patent publication US20230271965A1, “BICYCLIC HETEROARENES AND METHODS OF THEIR USE” (Kineta, Inc., priority 2020, published 2023)
